# According to ChEMBL document CHEMBL4152377, “Design and Activity of Specific Hypoxia-Inducible Factor-2α (HIF-2α) Inhibitors for the Treatment of Clear Cell Renal Cell Carcinoma: Discovery of Clinical Candidate ( S)-3-((2,2-Difluoro-1-hydroxy-7-(methylsulfonyl)-2,3-dihydro-1 H-inden-4-yl)oxy)-5-fluorobenzonitrile (PT2385)” (J Med Chem, 2018):
# Active and inactive are the calls of the source. No cut-off for these calls is given here.
# Columns and labels:
# [1] = target: T1, Endothelial PAS domain-containing protein 1 (Homo sapiens, UniProt Q99814)
# T1 sequence (Q99814 whole entry, the tested form may be a part): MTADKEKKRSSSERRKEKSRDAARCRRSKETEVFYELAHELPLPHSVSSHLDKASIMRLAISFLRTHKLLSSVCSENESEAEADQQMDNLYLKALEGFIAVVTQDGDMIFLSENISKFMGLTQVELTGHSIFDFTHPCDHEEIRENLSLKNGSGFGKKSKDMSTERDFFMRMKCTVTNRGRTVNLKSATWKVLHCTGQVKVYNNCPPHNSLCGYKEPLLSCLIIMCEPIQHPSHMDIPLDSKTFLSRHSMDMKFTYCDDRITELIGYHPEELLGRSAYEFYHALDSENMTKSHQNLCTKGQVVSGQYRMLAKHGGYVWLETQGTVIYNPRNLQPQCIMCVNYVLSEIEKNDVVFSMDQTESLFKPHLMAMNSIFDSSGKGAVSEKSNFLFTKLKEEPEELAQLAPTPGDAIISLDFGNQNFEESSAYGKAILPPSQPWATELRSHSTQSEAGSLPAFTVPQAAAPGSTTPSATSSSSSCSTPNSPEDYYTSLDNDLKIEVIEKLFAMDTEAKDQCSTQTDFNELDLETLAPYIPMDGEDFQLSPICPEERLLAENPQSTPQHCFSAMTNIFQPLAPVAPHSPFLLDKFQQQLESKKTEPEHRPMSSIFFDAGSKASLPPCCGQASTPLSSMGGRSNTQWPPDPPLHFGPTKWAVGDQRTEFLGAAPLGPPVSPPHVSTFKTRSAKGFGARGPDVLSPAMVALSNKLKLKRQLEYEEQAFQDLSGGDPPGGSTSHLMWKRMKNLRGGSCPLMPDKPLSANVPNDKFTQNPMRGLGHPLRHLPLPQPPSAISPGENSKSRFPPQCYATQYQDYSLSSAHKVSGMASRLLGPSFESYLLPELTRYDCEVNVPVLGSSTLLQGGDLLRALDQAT
# [2] = target: T1, Endothelial PAS domain-containing protein 1; remark: listed apart in the source
# Rattus norvegicus = assay: Drug level in Sprague-Dawley rat treated with 10 mg/kg, po (R)-3-((4-(Difluoromethyl)-2,2-difluoro-3-hydroxy-1,1-dioxido-2,3-dihydrobenzo[b]thiophen-5-yl)oxy)-5-fluorobenzonitrile assessed as compound formation by UPLC analysis; type: ADME, organism-based; settings: in vivo
# [3] = Protein binding in mouse plasma at 10 uM after 4 hrs by LC-MS/MS analysis; type: ADME, cell-free; settings: read-out: PPB (converted)
# [4] = Plasma concentration in mouse after 12 hrs; type: ADME, cell-free
# [5] = Intrinsic clearance in mouse liver microsomes at 1 uM measured up to 30 mins by LC-MS/MS analysis; type: ADME, microsome; settings: read-out: CLH
# [6] = Apparent permeability across apical to basolateral side in MDCK-MDR1 cells at 1 uM after 1 hr by LC/MS/MS analysis; type: ADME, cell-based, Canis lupus familiaris; settings: dog
# [7] = Clearance in CD1 mouse at 3 mg/kg, iv by UPLC analysis; type: ADME, organism-based; settings: in vivo
# [8] = AUCt in CD1 mouse at 10 mg/kg, po by UPLC analysis; type: ADME, organism-based; settings: in vivo
# [9] = Volume of distribution at steady state in CD1 mouse at 3 mg/kg, iv by UPLC analysis; type: ADME, organism-based; settings: in vivo, read-out: Vdss
# [10] = Half life in CD1 mouse at 10 mg/kg, po by UPLC analysis; type: ADME, organism-based; settings: in vivo
# [11] = Oral bioavailability in CD1 mouse at 10 mg/kg by UPLC analysis; type: ADME, organism-based; settings: in vivo
# Mus musculus [12] = assay: In vivo inhibition of HIF-2alpha in SCID/Biege mouse xenografted with human 786-O cells assessed as reduction in CCND1 mRNA levels at 10 mg/kg, po bid for 3 days and measured after 12 hrs post last dose by qRT-PCR analysis; type: functional, organism-based
# Mus musculus [13] = assay: In vivo inhibition of HIF-2alpha in SCID/Biege mouse xenografted with human 786-O cells assessed as reduction in VEGFA mRNA levels at 10 mg/kg, po bid for 3 days and measured after 12 hrs post last dose by qRT-PCR analysis; type: functional, organism-based
# 786-0 [14] = assay: Antitumor activity against human 786-O cells xenografted in SCID/Biege mouse assessed as tumor regression at 10 mg/kg, po bid for 21 days; type: functional, organism-based
# Mus musculus [15] = assay: Toxicity in SCID/Biege mouse xenografted with human 786-O cells assessed as morbidity at 10 mg/kg, po bid for 21 days; type: organism-based; settings: in vivo, 504 h
# Mus musculus [16] = assay: Toxicity in SCID/Biege mouse xenografted with human 786-O cells assessed as mortality at 10 mg/kg, po bid for 21 days; type: organism-based; settings: in vivo, 504 h
# Mus musculus [17] = assay: Toxicity in SCID/Biege mouse xenografted with human 786-O cells assessed as effect on body weight at 10 mg/kg, po bid for 21 days; type: organism-based; settings: in vivo, 504 h
# Mus musculus [18] = assay: Minimum drug level in SCID/Biege mouse xenografted with human 786-O cells at 10 mg/kg, po bid for 3 days and measured after 12 hrs post last dose by LC-MS/MS analysis; type: ADME, organism-based; settings: in vivo
# 786-0 [19] = assay: In vivo inhibition of HIF-2alpha in SCID/Biege mouse xenografted with human 786-O cells assessed as reduction in tumor derived VEGFA protein levels at 10 mg/kg, po bid for 3 days and measured after 12 hrs post last dose by ELISA; type: functional, organism-based
IC50 [1] [nM],EC50 [2] [nM],Compound,other results
18200,,CC(=O)NCc1c(S(=O)(=O)C(F)F)ccc(Oc2cc(F)cc(Cl)c2)c1Br,
,17,O=S1(=O)c2ccc(Oc3cc(F)cc(Cl)c3)c(C(F)F)c2C(O)C1(F)F (stereo not drawn),
19600,,CC1(C)C(O)c2c(ccc(Oc3cc(F)cc(Cl)c3)c2Br)S1(=O)=O (stereo not drawn),
20,340,Cc1c(Oc2cc(F)cc(Cl)c2)ccc2c1C(O)C(F)(F)S2(=O)=O (stereo not drawn),
3600,,CS(=O)(=O)c1ccc(Oc2cc(F)cc(C#N)c2)c2c1C(O)C(F)(F)CC2 (racemic),
49,9200,N#Cc1c(Oc2cc(F)cc(Cl)c2)ccc2c1C(O)C(F)(F)S2(=O)=O (stereo not drawn),
170,3700,O=S(=O)(c1ccc(Oc2cc(F)cc(Cl)c2)c(Br)c1)C(F)(F)F,
3200,,O=S1(=O)CCC(O)c2c1ccc(Oc1cc(F)cc(F)c1)c2C(F)F (stereo not drawn),
4200,,CNS(=O)(=O)c1ccc(Nc2cc(F)cc(Cl)c2)c([N+](=O)[O-])c1,

# Further lines, the compound ahead of its results:
Compound,IC50 [1] [nM],EC50 [2] [nM],other results
O=[N+]([O-])c1c(Nc2cc(F)cc(Cl)c2)ccc2nonc12,490,,
O=S(=O)(c1ccc(Oc2cc(F)cc(Cl)c2)c2c1C(O)C(F)(F)C2)C(F)F (racemic),< 5,20,
N#Cc1cc(F)cc(Oc2ccc3c(c2C(F)F)C(=O)C(F)(F)S3(=O)=O)c1,,,Drug uptake (Rattus norvegicus): Active
O=S1(=O)c2ccc(Oc3cc(F)cc(Cl)c3)c(Br)c2C(O)C1(F)F (stereo not drawn),< 5,43,
O=S1(=O)c2ccc(Oc3cc(F)cc(Cl)c3)cc2C(O)C1(F)F (stereo not drawn),1100,,
O=S(=O)(c1ccc(Oc2cc(F)cc(Cl)c2)c(CO)c1)C(F)(F)F,1200,,
O=S(=O)(c1ccc(Oc2cc(F)cc(Cl)c2)c(Br)c1)C(F)F,180,2200,
O=S1(=O)c2ccc(Oc3cncc(Cl)c3)c(C(F)F)c2C(O)C1(F)F (stereo not drawn),350,630,
N#Cc1cncc(Oc2ccc3c(c2C(F)F)C(O)C(F)(F)S3(=O)=O)c1 (stereo not drawn),140,180,
O=S(=O)(c1ccc(Oc2cncc(Cl)c2)c2c1[C@H](O)C(F)(F)C2)C(F)F,,,"fraction unbound at 4 h, 10 µM [3]: 0.06; concentration at 12 h [4]: 560 nM; CLint scaled at 1 µM [5]: 20.1 mL/min/kg; Papp A→B at 1 h, 1 µM [6]: 2.79 ×10⁻⁶ cm/s; clearance [7]: 58.2 mL/min/kg; AUC(0-t) [8]: 5.44 µM·h; Vd [9]: 25 L/kg; half-life [10]: 5.3 h; bioavailability [11]: 101%; inhibition (Mus musculus [12]): inactive; inhibition (Mus musculus [13]): inactive; Activity (786-0 [14]): inactive; Activity (Mus musculus [15]): Non-Toxic; Activity (Mus musculus [16]): Non-Toxic; Activity (Mus musculus [17]): Non-Toxic; Drug uptake (Mus musculus [18]): Not Active; inhibition (786-0 [19]): inactive"
